Measured values: US20090012011A1, “Novel Compounds” (SmithKline Beecham Corporation, priority 2006, published 2009)

Columns and labels:
TRPV4 channel receptors [1] = biological target: T1, TRPV4 channel receptors (Bos taurus, UniProt A0A8F4X677); experiment: Ca2+ influx, Fura-2 fluorescence on FlexStation, bovine articular chondrocytes; format: cell-based
T1 construct: obtained using this method in bovine articular chondrocytes; endogenous in cells; host or cells: bovine articular chondrocytes
Description: (§1) Ca^2+ influx mediated through TRPV4 channel receptors can be measured using articular chondrocytes from such species as, but not limited to, human, rat, canine, rabbit, monkey, and bovine, using standard techniques in the art such as, but not limited to, Fura-2 (Invitrogen/Molecular Probes, Eugene, Oreg.) fluorescence using a FlexStation (manufactured by Molecular Devices, Sunnyvale, Calif.). Table 1 lists biological data for several representative compounds obtained using this method in bovine articular chondrocytes.

TRPV4 channel receptors [2] = biological target: T2, TRPV4 channel receptors (Homo sapiens, UniProt Q9HBA0); experiment: Ca2+ influx, Fura-2 fluorescence on FlexStation, human articular chondrocytes; format: cell-based
T2 construct: obtained using this method in human articular chondrocytes; endogenous in cells; host or cells: human articular chondrocytes
T2 sequence (Q9HBA0 whole entry): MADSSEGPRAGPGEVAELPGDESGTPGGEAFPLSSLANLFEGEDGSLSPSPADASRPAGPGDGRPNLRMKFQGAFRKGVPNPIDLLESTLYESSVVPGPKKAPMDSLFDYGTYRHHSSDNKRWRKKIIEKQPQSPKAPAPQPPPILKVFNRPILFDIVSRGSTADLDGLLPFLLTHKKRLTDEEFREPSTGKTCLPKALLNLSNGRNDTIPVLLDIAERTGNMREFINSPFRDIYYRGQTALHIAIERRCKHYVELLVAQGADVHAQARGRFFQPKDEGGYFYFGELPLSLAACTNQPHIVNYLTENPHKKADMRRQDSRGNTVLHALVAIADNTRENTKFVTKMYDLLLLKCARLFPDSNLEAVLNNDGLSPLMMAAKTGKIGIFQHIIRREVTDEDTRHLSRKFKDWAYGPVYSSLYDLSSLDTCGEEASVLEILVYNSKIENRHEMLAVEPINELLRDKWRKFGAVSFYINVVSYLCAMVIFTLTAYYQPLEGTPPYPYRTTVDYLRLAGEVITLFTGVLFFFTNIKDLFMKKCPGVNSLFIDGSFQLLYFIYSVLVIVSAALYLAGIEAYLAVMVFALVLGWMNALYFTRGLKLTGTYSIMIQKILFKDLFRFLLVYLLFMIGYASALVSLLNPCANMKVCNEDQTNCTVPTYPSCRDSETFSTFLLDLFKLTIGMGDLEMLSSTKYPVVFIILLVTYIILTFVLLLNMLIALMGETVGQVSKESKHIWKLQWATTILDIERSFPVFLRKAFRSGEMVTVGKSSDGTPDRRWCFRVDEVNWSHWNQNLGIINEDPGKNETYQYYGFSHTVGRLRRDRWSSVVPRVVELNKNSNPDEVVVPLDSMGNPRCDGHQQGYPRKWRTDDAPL
Description: as §1
Table 2 lists biological data for several representative compounds obtained using this method in human articular chondrocytes.

T1 sequence (A0A8F4X677 1-871): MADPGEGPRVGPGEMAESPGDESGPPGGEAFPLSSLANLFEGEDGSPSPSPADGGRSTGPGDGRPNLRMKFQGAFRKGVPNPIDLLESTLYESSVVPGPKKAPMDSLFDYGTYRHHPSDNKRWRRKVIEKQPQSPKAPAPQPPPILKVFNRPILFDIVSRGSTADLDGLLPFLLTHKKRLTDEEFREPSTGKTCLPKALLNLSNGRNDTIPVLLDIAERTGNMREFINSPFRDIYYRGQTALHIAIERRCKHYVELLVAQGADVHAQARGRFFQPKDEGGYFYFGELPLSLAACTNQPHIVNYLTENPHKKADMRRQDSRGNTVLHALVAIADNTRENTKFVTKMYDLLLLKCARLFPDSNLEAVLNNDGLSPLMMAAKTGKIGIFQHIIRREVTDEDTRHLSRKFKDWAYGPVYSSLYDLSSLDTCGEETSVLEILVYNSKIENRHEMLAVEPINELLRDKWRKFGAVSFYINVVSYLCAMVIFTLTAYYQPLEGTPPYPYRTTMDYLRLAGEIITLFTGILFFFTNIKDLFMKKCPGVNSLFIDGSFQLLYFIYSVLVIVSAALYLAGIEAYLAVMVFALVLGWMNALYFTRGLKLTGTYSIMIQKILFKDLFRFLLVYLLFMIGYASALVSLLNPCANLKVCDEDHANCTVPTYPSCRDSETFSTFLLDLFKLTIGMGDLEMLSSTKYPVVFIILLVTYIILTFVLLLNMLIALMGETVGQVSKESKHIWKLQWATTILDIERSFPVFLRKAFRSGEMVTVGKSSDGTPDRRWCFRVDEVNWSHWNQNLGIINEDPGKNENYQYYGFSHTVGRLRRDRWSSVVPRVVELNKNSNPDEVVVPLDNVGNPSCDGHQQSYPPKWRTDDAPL

| SMILES | EC50 (TRPV4 channel receptors [1]) [nM] | EC50 (TRPV4 channel receptors [2]) [nM] |
| --- | --- | --- |
| CC(C)C[C@H](NC(=O)c1cc2ccccc2s1)C(=O)NC[C@@H]1CN(S(=O)(=O)c2ccc(F)cc2Cl)C[C@@H]1O (single isomer, unassigned) [Example 2] | 70 to 100 | 100 to 1000 |
| CC(C)C[C@H](NC(=O)c1cc2ccccc2s1)C(=O)NC[C@H]1CN(S(=O)(=O)c2ccc(Cl)cc2Cl)C[C@H]1O (single isomer, unassigned) [Example 3] | 30 to 60 | 30 to 90 |
| CC(C)C[C@H](NC(=O)c1cc2ccccc2s1)C(=O)NC[C@@H]1CN(S(=O)(=O)c2ccc(F)cc2C(F)(F)F)C[C@@H]1O (single isomer, unassigned) [Example 6] |  | 1000 to 10000 |
